This is an account of results in patent US11299489B1, “Thiazole compounds as protein kinase inhibitors” (NATIONAL HEALTH RESEARCH INSTITUTES, priority 2020, dated 2022).

The test system of one series is MOLM-13 cells. In words: MTS cell viability assay, MOLM-13. The format is cell-based. As to conditions: Homo sapiens, MOLM-13, 72 h. From the text:
(§1) MV4:11, BaF3 and HEK293T cell lines were obtained from American Type Culture Collection (ATCC, Manassas, Va., USA). MOLM-13 cell line was purchased from the Deutsche Sammlung von Microorganismen and Zellkulturen GmbH (DSMZ, Braunschweig, Germany). The GIST-T1 cell line was obtained from COSMO BIO CO., LTD (Tokyo, Japan). The GIST-T1, MOLM-13, MV4:11, BaF3, BaF3/FLT3-D835Y, BaF3/FLT3-ITD-F691L and BaF3/FLT3-ITD-D835Y cells were maintained in RPMI 1640 medium supplemented with 10% fetal bovine serum (FBS), 10 U/mL penicillin, and 100 μg/mL streptomycin at 37° C. and 5% CO2. The kasumin-1 cells were cultured in RPMI 1640 medium supplemented with 20% fetal bovine serum (FBS), 1 mM Hepes, 1 mM sodium pyruvate, 10 U/ml penicillin, and 100 μg/ml streptomycin. The HEK293T and FLT3-transfected HEK293T cells were cultured in DMEM (Invitrogen, USA) medium with 10% FBS fetal bovine serum. […]
(§2) Cell viability assay was performed by seeding 1×10^4 cells (MOLM-13, MV4:11, BaF3, BaF3/FLT3-D835Y, BaF3/FLT3-ITD-D835Y and BaF3/FLT3-ITD-F691L) per well in a 96-well culture plate. […] The viable cells were quantitated using the CellTiter 96 AQueous MTS method (Promega, Madison, Wis., USA) according to the manufacturer's recommended protocol. The results were determined by measuring the absorbance at 490 nm using a plate reader (Victor2; PerkinElmer, Shelton, Conn., USA). […]
On the technique in general: Formazan colour is commonly taken as a measure of viable cells.

For series [1], the target named is T1, GST-FLT3-KD WT (FLT3 kinase catalytic domain) (Homo sapiens, UniProt P36888).
T1 construct: containing the FLT3 kinase catalytic domain (residues Y567-5993); GST; made in house; host or cells: Sf9 insect cells (baculovirus, pBac-PAK8-GST-FLT3-KD plasmid)
T1 sequence (P36888 567-993 limits assumed): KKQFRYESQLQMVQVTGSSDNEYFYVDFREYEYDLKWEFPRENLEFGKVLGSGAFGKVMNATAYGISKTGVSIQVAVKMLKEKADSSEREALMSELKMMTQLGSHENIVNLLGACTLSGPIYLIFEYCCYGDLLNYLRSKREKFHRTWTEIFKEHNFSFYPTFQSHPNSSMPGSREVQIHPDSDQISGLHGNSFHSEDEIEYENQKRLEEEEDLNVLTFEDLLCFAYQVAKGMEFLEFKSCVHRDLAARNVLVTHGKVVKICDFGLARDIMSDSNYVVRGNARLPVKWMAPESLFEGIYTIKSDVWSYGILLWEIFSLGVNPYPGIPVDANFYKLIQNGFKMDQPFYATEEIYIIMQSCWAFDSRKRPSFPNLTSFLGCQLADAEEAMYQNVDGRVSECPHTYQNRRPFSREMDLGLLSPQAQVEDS
In words: FLT3 WT Kinase-Glo assay. The format is biochemical. As to conditions: 1 μM ATP, 30° C., 4 h; read-out: IC50, inhibiting FLT3 activity. The protocol: A study was carried out as follows to test compound 1 HCl salt prepared according to EXAMPLE 1 in inhibiting FLT3 activity.
GST-FLT3-KD^WT containing the FLT3 kinase catalytic domain (residues Y567-5993) was expressed in Sf9 insect cells transfected the baculovirus containing pBac-PAK8-GST-FLT3-KD plasmid. An FLT3^WT Kinase-Glo assay was carried out in 96-well plates at 30° C. for 4 h to test compound in a final volume of 50 μL including the following components: 75 ng GST-FLT3-KD^WT proteins, 25 mM HEPES, pH 7.4, 4 mM MnCl2, 10 mM MgCl2, 2 mM DTT, 0.02% Triton X-100, 0.1 mg/mL bovine serum albumin, 25 μM Her2 peptide substrate, 0.5 mM Na3VO4, and 1 μM ATP. Following incubation, 50 μL Kinase-Glo Plus Reagent (Promega, Madison, Wis., USA) was added to each well and the mixture was incubated at 25° C. for 20 min. A 70-μL aliquot of each reaction mixture was transferred to a black microtiter plate and the luminescence was measured on Wallac Vector 1420 multilabel counter (PerkinElmer, Shelton, Conn., USA).

The test system of the next series is MV4:11 cells. In words: MTS cell viability assay, MV4:11. Conditions: Homo sapiens, MV4-11, 72 h. The format is cell-based.
Excerpt: as §1, §2

Series [2] deals with BaF3 cells (IL3 dependent pro-B cell line). In words: MTS cell viability assay, BaF3 + IL3. The format is cell-based, murine. As to conditions: Mus musculus; BaF3 + IL3, 72 h.
Excerpt: as §1, §2

Series [3] deals with BaF3/FLT3-ITD-F691L cells. In words: MTS cell viability assay, BaF3/FLT3-ITD-F691L. The format is cell-based, murine. As to conditions: Mus musculus, 72 h.
Excerpt: as §1, §2

For series [4], the system named is BaF3/FLT3-ITD-D835Y cells. In words: MTS cell viability assay, BaF3/FLT3-ITD-D835Y. The format is cell-based, murine. Conditions: Mus musculus, 72 h.
Excerpt: as §1, §2

Another series deals with GIST48 cells. In words: Cell proliferation assay (methylene blue), GIST48. The format is cell-based. As to conditions: Homo sapiens, GIST48, 120 h. The method, then:
(§3) GIST882, GIST48 and GIST430 cells were all cultured in incubators maintained at 37° C. and 5% CO2. GIST882 was cultured in RPMI-1640 supplemented with 20% fetal bovine serum (FBS). GIST48 was cultured with F10 supplemented with 20% FBS, 0.5% Mito, serum extender (BD Bioscience, 355006) and 1% pituitary extract bovine (BD Bioscience 354123). GIST430 was cultured in IMDM supplemented with 20% FBS. GIST882, GIST430 and GIST48 cells were provided by Dr. Jonathan A. Fletcher (Harvard Medical School, US).
(§4) GIST cells (4×10^4) were treated with different dosage of compounds. The treated GIST882 cells were incubated for 144 h and GIST48 and GIST430 cells were incubated for 120 h at 37° C. in 5% CO2. Cell proliferation was determined by incubating the cells with methylene blue (Clontech, CA, US) for 1 hour. The absorbance was measured at 450 nm using SpectraMax M5 microplate reader (Molecular Devices, US).

The next series has as its system GIST430 cells. In words: Cell proliferation assay (methylene blue), GIST430. Conditions: Homo sapiens, GIST430, 120 h. The format is cell-based. The protocol: as §3, §4
Series [5] deals with T2, human c-KIT (residues T544-V976) (Homo sapiens, UniProt P10721).
T2 construct: human c-KIT (residues T544-V976); His (N); made in house; host or cells: baculovirus-insect cell expression system (printed '519', evidently Sf9)
In words: c-Kit ADP Kinase-Glo assay. The format is biochemical. As to conditions: 20 μM ATP, 30° C., 150 mins; read-out: IC50, inhibiting c-Kit activity. The method, then: A study was carried out as follows to test compound 1 HCl salt prepared according to EXAMPLE 1 in inhibiting c-Kit activity.
The N-terminal His-tagged human c-KIT (residues T544-V976) recombinant proteins, expressed in 519 baculovirus-insect cell expression systems, were purified for c-KIT ADP Kinase-Glo assay. A c-Kit-ADP Kinase-Glo assay was carried out in 96-well plates at 30° C. for 150 mins with a final volume of 10 μL, including 40 mM Tris pH 7.4, 20 mM MgCl2, 2 mM MnCl2, 2 mM DTT, 0.01% BSA, 20 μM ATP, 20 μM poly(Glu,Tyr) 4:1 peptide, 0.1 mM Na3VO4, 250 ng of recombinant c-Kit proteins, and a tested compound at the indicated concentration. The reactions were stopped by the addition of 5 μL ADP-Glo™ Reagent (Promega, Madison, Wis., USA) at 25° C. with 40 min incubation, followed by 10 μL of kinase detection reagent for a further 30 min. Finally, a […] aliquot of each reaction mixture was transferred to a black microtiter plate and the luminescence was measured on Wallac Vector 1420 multilabel counter (Perkin-Elmer, Shelton, Conn., USA).
(Kinase-Glo measures the ATP left after a reaction by luminescence.)

A further series relates to GIST-T1 cells. In words: MTS cell viability assay, GIST-T1. The format is cell-based. Conditions: Homo sapiens, GISTT1, 72 h.
Excerpt: as §1, §2

The next series deals with BaF3/FLT3-D835Y cells. In words: MTS cell viability assay, BaF3/FLT3-D835Y. The format is cell-based, murine. As to conditions: Mus musculus, 72 h.
Excerpt: as §1, §2

The test system of another series is Kasumi-1 xenografts. In words: In vivo efficacy study on Kasumi-1 xenografts. Set-up: species or system SCID male mice. Conditions: days 1-5 and 8-12; for Day 18 Tumor Size: control 880.
For a further series, the system named is GIST882 cells. In words: Cell proliferation assay (methylene blue), GIST882. Conditions: Homo sapiens, GIST882, 144 h. The format is cell-based. The method, then:
as §3, §4

As a reminder, the GI50 is the concentration giving 50% growth inhibition. Broadly, the IC50 is the concentration needed to halve the response being measured.

Counter-ions that a name gives are not always drawn. Where only a bound is given, the exact number is not on record here.

T2 sequence (P10721 544-976): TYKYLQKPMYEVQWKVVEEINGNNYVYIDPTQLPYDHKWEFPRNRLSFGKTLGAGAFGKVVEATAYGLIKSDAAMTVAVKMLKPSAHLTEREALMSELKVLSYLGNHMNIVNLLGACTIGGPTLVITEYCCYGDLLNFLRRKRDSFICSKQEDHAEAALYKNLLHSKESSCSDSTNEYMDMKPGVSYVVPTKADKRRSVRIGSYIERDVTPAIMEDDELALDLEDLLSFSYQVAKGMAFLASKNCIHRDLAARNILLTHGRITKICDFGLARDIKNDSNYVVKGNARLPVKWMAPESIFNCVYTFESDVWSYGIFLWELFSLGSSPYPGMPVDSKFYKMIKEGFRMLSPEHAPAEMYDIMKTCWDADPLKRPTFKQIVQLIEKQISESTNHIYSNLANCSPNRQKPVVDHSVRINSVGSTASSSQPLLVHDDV

As to `Cc1nc(Nc2ncc(-c3ccncc3)s2)cc(N2CCNCC2)n1` [Compound 1 HCl salt, 2-Methyl-6-(piperazin-1-yl)-N-[5-(pyridine-4-yl)-1,3-thiazol-2-yl]pyrimidin-4-amine dihydrochloride], the GI50 in the series with MOLM-13 cells is 0.0029 µM; with MV4:11 cells, 0.0013 µM; in [2], 2.58 µM; in series [3] it was 0.095 µM; in series [4], 0.053 µM; in the series on GIST48 cells, 0.02 µM. The GI50 in the series with GIST430 cells is 0.033 µM; in the series on GIST-T1 cells it was 0.0023 µM; in the series on BaF3/FLT3-D835Y cells it was 0.014 µM; in the series on GIST882 cells, 0.008 µM. Moreover, the IC50 in series [1] and in [5] was less than 0.1 µM in each case. Further, the “Body Weight Loss” value in the series with Kasumi-1 xenografts (10 mg/kg oral) and in the series on Kasumi-1 xenografts (50 mg/kg oral) was “No” each time. Further, the “Mortality (n = 6)” value in the series on Kasumi-1 xenografts (10 mg/kg oral) and in the series on Kasumi-1 xenografts (50 mg/kg oral) was 0/6 each time. The “Day 18 Tumor Size” value with Kasumi-1 xenografts (10 mg/kg oral) was determined as 700 mm^3; in the series with Kasumi-1 xenografts (50 mg/kg oral) it was 80 mm^3.
